Laboratory results reported in patent publication US12269816B2, “Benzothiophene compound, preparation method therefor and use thereof” (SICHUAN KELUN-BIOTECH BIOPHARMACEUTICAL CO., LTD., priority 2019, dated 2025).

Test system: MC38 mouse colon cancer allograft tumor model
Test: In vivo efficacy in the MC38 mouse colon cancer allograft tumor model
Conditions: 10 μg i.t.; for Tumor Volume, Day 0, Dosing side / Tumor Volume, Day 0, Non-dosing side: baseline at start of dosing; for Tumor Volume, Day 0, Dosing side / Tumor Volume, Day 0, Non-dosing side / Tumor Volume, Day 18, Dosing side / Tumor Volume, Day 18, Non-dosing side: mean ± SEM, n = 8; for Tumor Volume, Day 0, Dosing side / Tumor Volume, Day 0, Non-dosing side / Tumor Volume, Day 18, Dosing side / TGIvolume, Day 18, Dosing side: BIW×2; for Tumor Volume, Day 18, Non-dosing side / TGIvolume, Day 18, Non-dosing side: BIW×2 on the other side; for TGIvolume, Day 18, Dosing side / TGIvolume, Day 18, Non-dosing side: tumor volume inhibitory rate
Experimental: In this experimental example, the changes in tumor volume and tumor weight of an MC38 mouse colon cancer transplanted tumor model were measured and recorded after intratumoral injection (i.t.) of compound 6 or compound 8, so as to test the efficacy of each test compound.
Experimental cell strain: Mouse colon cancer MC38 cells (Nanjing Cobioer) were cultured in a 37° C., 5% CO2 incubator (medium: RPMI-1640 (Hyclone) containing 10% fetal bovine serum (Gibco)). Trypsin-EDTA (Hyclone) was used for routine digestion and passage. When the cells were in the exponential phase with a saturation of […], the cells were collected and counted.
Experimental animals: C57BL/6J mice, 6-8 weeks old, female, weighing 18-20 grams. All mice were purchased from Beijing Vital River Laboratory Animal Technology Co., Ltd., and kept in a special pathogen-free (SPF) animal room.
The MC38 cells were resuspended in phosphate buffered saline (PBS) at a density of 5×10^6 cells/mL. 0.1 mL of PBS (containing 5×10^5 MC38 cells) was inoculated subcutaneously at the position of scapula at the right and left back of each mouse. When the average volume of the tumors at the left and right sides reached about 100 mm^3, the mice were randomly grouped according to the volumes of the tumors at the left and right sides.
When the average volume of the subcutaneously transplanted tumors reached about 100 mm^3, the mice were randomly grouped according to the volume of the tumors at the left and right sides, with 8 in each group. Administration was performed on the tumors at the right side via intratumoral injection at an administration frequency of BIW×2 for 2 weeks in total, while no administration was performed on the tumors at the left side. After administration, the volumes of tumors at the left and right sides were measured twice a week, and the death of the animals was observed every day.
The anti-tumor efficacy of the test compound was evaluated by the tumor volume inhibitory rate TGIvolume (%). The tumor volume was measured with a vernier caliper. The tumor volume is calculated according to the formula: V=0.5×a×b^2, wherein “a” and “b” represent the long diameter and short diameter of the tumor, respectively. The tumor volume inhibitory rate TGIvolume (%)=[(1−(the average tumor volume at the end of dosing to a dosing group−the average tumor volume at the start of dosing to the dosing group)/(the average tumor volume at the end of dosing to a vehicle control group−the average tumor volume at the start of dosing to the vehicle control group)]×100%. When the tumor volume at the end of dosing was smaller than the tumor volume at the start of dosing (i.e., tumor regression), TGIvolume (%)=[1−(the average tumor volume at the end of dosing to a dosing group−average the tumor volume at the start of dosing to the dosing group)/the average tumor volume at the start of dosing to the dosing group]×100%.
A statistical analysis was performed based on the tumor volume at the end of the experiment using the Graphpad Prism software. A comparison between the two groups was analyzed by Student's t-test. When P<0.05, it was considered as having a significant difference.

| SMILES | Tumor Volume, Day 0, Dosing side | Tumor Volume, Day 0, Non-dosing side | Tumor Volume, Day 18, Dosing side | Tumor Volume, Day 18, Non-dosing side | TGIvolume, Day 18, Dosing side | TGIvolume, Day 18, Non-dosing side |
| --- | --- | --- | --- | --- | --- | --- |
| COc1cc2sc(C(=O)CCC(=O)O)cc2cc1OCCCOc1cc2sc(C(=O)N(C)CCC(=O)O)cc2cc1OC [Compound 6, 4-(5-(3-((2-((2-carboxyethyl)(methyl)carbamoyl)-5-methoxybenzo[b]thiophen-6-yl)oxy)propoxy)-6-methoxybenzo[b]thiophen-2-yl)-4-oxobutanoic acid] | 112.09 ± 11.95 mm^3 | 96.07 ± 10.17 mm^3 | 105.10 ± 74.74 mm^3 | 760.69 ± 174.22 mm^3 | 106.24% | 51.09% |
| COc1cc2sc(C(=O)CCC(=O)O)cc2cc1OCCCOc1cc2cc(C(=O)N(C)CCC(=O)O)sc2cc1OC [Compound 8, 4-(5-(3-((2-((2-carboxyethyl)(methyl)carbamoyl)-6-methoxybenzo[b]thiophen-5-yl)oxy)propoxy)-6-methoxybenzo[b]thiophen-2-yl)-4-oxobutanoic Acid] | 113.24 ± 12.33 mm^3 | 96.60 ± 11.50 mm^3 | 0.00 ± 0.00 mm^3 | 666.08 ± 100.92 mm^3 | 200.00% | 58.09% |
